From US20240400547A1, “2,6-PIPERIDINEDIONE COMPOUND AND APPLICATION THEREOF” (MEDSHINE DISCOVERY INC., priority 2021, published 2024) come the findings set out here.

What is called half-life is how long it takes for the measured level to halve. The term clearance denotes a measure of how efficiently the substance is removed, as volume per time. Usually bioavailability stands for dose-corrected exposure relative to a reference, in per cent. In general, IC50 refers to the point on the concentration scale where inhibition reaches its midpoint.

A short description of series [1]: Pharmacokinetic evaluation in mice. The series is classed as in vivo, C57BL/6N or CD-1 male mice. Particulars: for Vd / half-life / clearance / bioavailability: male, plasma; for Vd: read-out: Apparent volume of distribution; for half-life: read-out: Elimination half-life (converted); for clearance: read-out: Plasma clearance rate; for bioavailability: po, read-out: Bioavailability F. An excerpt: In this study, C57BL/6N or CD-1 male mice were selected as test animals, and LC/MS/MS method was used to quantify plasma concentrations of the test compound intravenously injected or gavage to mice at different time points, so as to evaluate the pharmacokinetic profile of the compounds of the present disclosure in mice.
C57BL/6N mice (male, 20 to 30 g, 7 to 10 weeks old, Beijing VitalRiver) or CD-1 mice (male, 20 to 35 g, 7 to 10 weeks old, Beijing VitalRiver).
• The test compounds, either as clear or suspension solutions, were administered intravenously through the tail vein to C57BL/6N mice or CD-1 mice (either fasted overnight or fed) (vehicle: 10% DMSO/10% solutol/80% H2O or 5% DMSO/10% solutol/85% H2O), or intragastrically administered to C57BL/6N mice or CD-1 mice (either fasted overnight or fed). For intravenous injection, blood 50 μL was collected via the cheek vein puncture at 0 h (pre-administration), 0.083, 0.25, 0.5, 1, 2, 4, 6, 8, and 24 h after administration, and placed in an anticoagulant tube added with heparin sodium. The mixture was thoroughly vortexed and mixed, and centrifuged at 6000 g for 3 minutes at 2-8° C. For oral administration, blood was collected via the cheek vein puncture at 0 h (pre-administration), 0.083, 0.25, 0.5, 1, 2, 4, 6, 8, and 24 h after administration, and placed in an anticoagulant tube added with heparin sodium. The mixture was thoroughly vortexed and mixed, and centrifuged at 6000 g for 3 minutes at 2-8° C. Plasma concentrations were determined by LC-MS/MS method, and relevant pharmacokinetic parameters were calculated using Phoenix WinNonlin8.2.0 pharmacokinetic software with non-compartmental model linear-log trapezoidal method.
• The test compounds, as clear solutions, were administered intravenously through the tail vein to CD-1 mice (fasted overnight) (vehicle: 10% DMSO/10% solutol/80% H2O or 5% DMSO/10% solutol/85% H2O), or intragastrically administered to CD-1 mice (fasted overnight). For intravenous injection, blood was collected via the saphenous vein puncture at 0 h (pre-administration), 0.083, 0.25, 0.5, 1, 2, 4, 8, and 24 h after administration, and placed in a EDTA-K2 anticoagulant tube. The mixture was thoroughly vortexed and mixed, and centrifuged at 3200 g for 10 minutes at 4° C. to obtain plasma. For oral administration, blood was collected via the saphenous vein puncture at 0 h (pre-administration), 0.083, 0.25, 0.5, 1, 2, 4, 8, and 24 h after administration, and placed in a EDTA-K2 anticoagulant tube. The mixture was thoroughly vortexed and mixed, and centrifuged at 3200 g for 10 minutes at 4° C. to obtain plasma. Plasma concentrations were determined by LC-MS/MS method, and relevant pharmacokinetic parameters were calculated using Phoenix WinNonlin 6.3 pharmacokinetic software with non-compartmental model linear-log trapezoidal method.

Another series deals with TMD-8. Put plainly: Antiproliferative effect in lymphoma cell line TMD-8 (CellTiter-Glo). The series is classed as cell-based. To be noted: TMD-8, 5 days; for IC50: Homo sapiens, TMD8, 120 h. The procedure:
Experimental purpose: The experiment aims to evaluate the inhibitory effects of the test compounds on cell proliferation in the diffuse large B-cell lymphoma (DLBCL) cell lines OCI-LY10 and TMD-8.
The tumor cell lines were cultured in a 37° C., 5% CO2 incubator under the above culture conditions. Regular passage, and cells in logarithmic growth phase were taken for plating.
• (1) Cells were stained with trypan blue and viable cells were counted. • (2) The cell concentration was adjusted to an appropriate concentration.
• (3) 100 μL of cell suspension per well was added to the culture plate as shown above. • (4) The culture plate was cultured overnight in a 37° C., 5% CO2 incubator with 100% relative humidity.
Preparation of stock solution storage plate with 1000 times the initial concentration of the compound: The compound was serially diluted with DMSO from the highest concentration to the lowest concentration. The solution was prepared as needed each time.
4. Preparation of 1000× Compound Working Solution and Cell Treatment with Compounds • (1) Preparation of the working solution with 5 times the initial concentration of the compound: For 3-fold dilution of the compound, 30 μL of the compound from a stock solution at 1000-fold concentration was taken, and 20 μL of DMSO was added to the subsequent wells. Then, 10 μL was transferred from one concentration to the next in sequence. For 5-fold dilution of the compound, 30 μL of the compound from a stock solution at 1000-fold concentration was taken, and 24 μL of DMSO was added to the subsequent wells. Then, 6 μL was transferred from one concentration to the next in sequence. 20 μL of DMSO was added to the vehicle control. The 1000-fold concentrated compound was diluted 200 times with culture medium, i.e., 1 μL of the 1000-fold diluted compound is added to 199 μL of culture medium, and the mixture was homogenized using a pipette. • (2) Compound addition: 25 μL of the 5-fold compound solution was added to the cell culture plate. • (3) The 96-well cell plate was returned to the incubator to culture OCI-LY10 (with either 3-fold or 5-fold dilution, incubated with compounds added for 5 days) and TMD-8 (with either 3-fold or 5-fold dilution, incubated with compounds added for 5 days).
The following steps were performed according to the instructions of Promega CellTiter-Glo luminescent cell viability assay kit (Promega-G7573). • (1) CellTiter-Glo buffer was melted and brought to room temperature. • (2) CellTiter-Glo substrate was brought to room temperature. • (3) CellTiter-Glo working solution was prepared by adding 10 mL of CellTiter-Glo buffer to a vial of CellTiter-Glo substrate to dissolve the substrate. • (4) The mixture was slowly vortexed and shaken to be fully dissolved. • (5) The cell culture plate was taken out and left for 30 minutes to equilibrate to room temperature. • (6) 60 μL of CellTiter-Go working solution was added per well (equal to half the volume of cell culture medium per well). The cell plate was wrapped in aluminum foil to be protected from light. • (7) The culture plate was shaken on an orbital shaker for 2 minutes to induce cell lysis. • (8) The culture plate was left at room temperature for 10 minutes to stabilize the luminescent signal. • (9) The luminescent signal was detected on a 2104 EnVision plate reader.
The inhibition rate (IIR) of the test compound was calculated using the following formula: IR (%)=(1−RLU compound/RLU vehicle control)*100%. The inhibition rates of compounds at different concentrations were calculated in Excel, and then GraphPad Prism software was used to plot inhibition curves and calculate relevant parameters, including minimum inhibition rate, maximum inhibition rate, and IC50.

Where [2] appears, read: intragastric administration 10 mg/kg, experimental operation B, fasted overnight.
Where [3] appears, read: intravenous injection 2 mg/kg, experimental operation B, fasted overnight.
Where [4] appears, read: CD-1, mouse, intravenous injection 2 mg/kg, experimental operation B, fasted overnight.
The mark [5] stands for this setting: CD-1, mouse, intragastric administration 10 mg/kg, experimental operation B, fasted overnight.
The mark [6] stands for this setting: intragastric administration 10 mg/kg, experimental operation A, fed.
The mark [7] stands for this setting: intragastric administration 10 mg/kg, experimental operation A, fasted overnight.
The mark [8] stands for this setting: mouse, intravenous injection 2 mg/kg, experimental operation A, fasted overnight.

SMILES strings stand for the structures. Counter-ions that a name gives are not always drawn. Like-named read-outs stand apart in the source and are kept apart here.

On to `CC(C)(O)c1cc2nc(C3CCC(CN4CCN(CC(=O)Nc5cccc6c5ccc5onc(C7CCC(=O)NC7=O)c56)CC4)CC3)sc2cc1NC(=O)c1cccc(C(F)(F)F)n1` (centres unmarked) [Formate of WX017], for which, in series [1] (setting [2]), the “Area under drug-time curve (0-inf)” value was 5.07 µM·h, the Peak concentration worked out at 0.65 µM and the “Time to peak concentration” value was 4.00 h. Besides, the “Area under drug-time curve (0-inf)” value in series [1] (setting [3]) stood at 3.17 µM·h. Further, in series [1] (setting [4]), the Vd was determined as 2.59 L/kg, the half-life was 2.32 h and the clearance was found to be 12.2 mL/min/kg. In addition, the bioavailability in series [1] (setting [5]) is 31.9%.
In the series on TMD-8, `CC(C)(O)c1cc2nc([C@H]3CC[C@H](CN4CCN(CC(=O)Nc5ccc6c(C7CCC(=O)NC7=O)noc6c5)CC4)CC3)sc2cc1NC(=O)c1cccc(C(F)(F)F)n1` (some centres unmarked) [Formate of WX026] returned an IC50 of 8.65 nM and a Maximum inhibition rate of 99.92%.
In the case of `O=C1CCC(c2coc3cc(NC(=O)CN4CCN(C[C@H]5CC[C@H](N6CC(NC(=O)c7coc(-c8ccnc(NCC9CC9)c8)n7)C(C(F)F)N6)CC5)CC4)ccc23)C(=O)N1` (some centres unmarked) [Hydrochloride of WX002], in the series with TMD-8, the half-inhibitory concentration (IC50) worked out at 92 nM and the Maximum inhibition rate was 83.31%. Further, in series [1] (setting [2]), the “Area under drug-time curve (0-inf)” value was 2.00 µM·h, the Peak concentration worked out at 0.64 µM and the “Time to peak concentration” value was 1.00 h.
`O=C1CCC(c2noc3ccc4c(NC(=O)CN5CCN(C[C@H]6CC[C@H](n7cc(NC(=O)c8coc(-c9ccnc(NCC%10CC%10)c9)n8)c(C(F)F)n7)CC6)CC5)cccc4c23)C(=O)N1` (some centres unmarked) [Hydrochloride of WX014]: in the series with TMD-8, the IC50 amounted to 10.3 nM and the Maximum inhibition rate is recorded as 89.86%. For the same compound, in series [1] (setting [6]), the “Area under drug-time curve (0-inf)” value stood at 4.47 µM·h, the Peak concentration was found to be 0.54 µM and the “Time to peak concentration” value is recorded as 1.00 h. Moreover, the “Area under drug-time curve (0-inf)” value in series [1] (intravenous injection 2 mg/kg, experimental operation A, fed) is 5.40 µM·h.
As for `O=C1CCC(c2noc3ccc4c(NC(=O)C(F)(F)C5CCN(CC6CCC(n7cc(NC(=O)c8coc(-c9ccnc(NCC%10CC%10)c9)n8)c(C(F)F)n7)CC6)CC5)cccc4c23)C(=O)N1` (centres unmarked) [Hydrochloride of WX018], in the series on TMD-8, the IC50 stood at 12.8 nM and the Maximum inhibition rate was 99.53%. Further, in series [1] (setting [2]), the “Area under drug-time curve (0-inf)” value is 1.01 µM·h, the Peak concentration amounted to 0.09 µM and the “Time to peak concentration” value amounted to 6.00 h. Moreover, the “Area under drug-time curve (0-inf)” value in series [1] (setting [3]) amounted to 3.06 µM·h. In series [1] (setting [4]), the Vd turned out to be 4.39 L/kg, the half-life was 5.22 h and the clearance turned out to be 11.8 mL/min/kg. For the same compound, the bioavailability in series [1] (setting [5]) was found to be 6.59%.
In the series with TMD-8, `O=C1CCC(c2coc3ccc4c(NC(=O)CN5CCN(C[C@H]6CC[C@H](n7cc(NC(=O)c8coc(-c9ccnc(NCC%10CC%10)c9)n8)c(C(F)F)n7)CC6)CC5)cccc4c23)C(=O)N1` (some centres unmarked) [Trifluoroacetate of WX011] displayed an IC50 of 17 nM and a Maximum inhibition rate of 94.65%. In series [1] (setting [7]), the “Area under drug-time curve (0-inf)” value came to 5.00 µM·h, the Peak concentration was 0.45 µM and the “Time to peak concentration” value is reported as 1.67 h. Moreover, in series [1] (intravenous injection 2 mg/kg, experimental operation A, fasted overnight), the “Area under drug-time curve (0-inf)” value amounted to 15.31 µM·h. For the same compound, in series [1] (setting [8]), the Vd turned out to be 1.8 L/kg, the half-life is 9.45 h and the clearance is 2.76 mL/min/kg. Besides, in series [1] (mouse, intragastric administration 10 mg/kg, experimental operation A, fasted overnight), the bioavailability was determined as 6.53%.
